The term melting point denotes the temperature of the solid-liquid transition. As to `COc1cc(Nc2c(C#N)cnc3cc(-c4ccc(CN5CC[S+]([O-])CC5)cc4)ccc23)c(Cl)cc1Cl` [Example 151, 4-[(2,4-Dichloro-5-methoxyphenyl)amino]-7-{4-[(1-oxido-4-thiomorpholinyl)methyl]phenyl}-3-quinolinecarbonitrile], the melting point was 244 to 247 °C. The value for `Cn1ccnc1Sc1ccc(Nc2c(C#N)cnc3cc(-c4ccc(CN5CCOCC5)o4)ccc23)cc1Cl` [Example 154, 4-{3-Chloro-4-[(1-methyl-1H-imidazol-2-yl)sulfanyl]anilino}-7-[5-(4-morpholinylmethyl)-2-furyl]-3-quinolinecarbonitrile] was 224 to 226 °C. The compound `Cn1ccnc1Sc1ccc(Nc2c(C#N)cnc3cc(-c4ccc(CN5CCN(CCO)CC5)o4)ccc23)cc1Cl` [Example 157, 4-{3-Chloro-4-[(1-methyl-1H-irnidazol-2-yl)sulfanyl]anilino}-7-(5-{[4-(2-hydroxyethyl)-1-piperazinyl]methyl}-2-furyl)-3-quinolinecarbonitrile] had a melting point of 206 to 209 °C. The value for `Cn1ccnc1Sc1ccc(Nc2c(C#N)cnc3cc(-c4ccc(CN5CCC(O)CC5)s4)ccc23)cc1Cl` [Example 159, 4-{3-Chloro-4-[(1-methyl-1H-imidazol-2-yl)sulfanyl]anilino}-7-{5-[(4-hydroxy-1-piperidinyl)methyl]-2-thienyl}-3-quinolinecarbonitrile] was 147 to 149 °C; that for `Cn1ccnc1Sc1ccc(Nc2c(C#N)cnc3cc(-c4ccc(CN5CCCCC5)s4)ccc23)cc1Cl` [Example 160, 4-{3-Chloro-4-[(1-methyl-1H-imidazol-2-yl)sulfanyl]anilino}-7-[5-(1-piperidinylmethyl)-2-thienyl]-3-quinolinecarbonitrile] was 100 °C (dec.).

Regarding `Cn1ccnc1Sc1ccc(Nc2c(C#N)cnc3cc(-c4ccc(CN5CCN(CCO)CC5)s4)ccc23)cc1Cl` [Example 161, 4-{3-Chloro-4-[(1-methyl-1H-imidazol-2-yl)sulfanyl]anilino}-7-(5-{[4-(2-hydroxyethyl)-1-piperazinyl]methyl}-2-thienyl)-3-quinolinecarbonitrile], the melting point fell in the range of 145 to 147 °C. The same measure for `N#Cc1cnc2cc(-c3cc(CN4CCOCC4)c(CN4CCOCC4)s3)ccc2c1Nc1ccc(Oc2ccccc2)cc1` [Example 168, 7-[4,5-Bis(4-morpholinylmethyl)-2-thienyl]-4-(4-phenoxyanilino)-3-quinolinecarbonitrile]: 158 to 160 °C; for `Cn1ccnc1Sc1ccc(Nc2c(C#N)cnc3cc(-c4cc(CN5CCOCC5)c(CN5CCOCC5)s4)ccc23)cc1Cl` [Example 169, 7-[4,5-Bis(4-morpholinylmethyl)-2-thienyl]-4-{3-chloro-4-[(1-methyl-1H-irnidazol-2-yl)sulfanyl]anilino}-3-quinolinecarbonitrile]: 173 to 175 °C. The same measure for `Cn1ccnc1Sc1ccc(Nc2c(C#N)cnc3cc(-c4ccc(C=O)cn4)ccc23)cc1Cl` [Example 170, 4-{3-Chloro-4-[(1-methyl-1H-imidazol-2-yl)sulfanyl]anilino}-7-(5-formyl-2-pyridinyl)-3-quinolinecarbonitrile]: 130 °C (dec.). The value for `CCN1CCN(Cc2ccc(-c3ccc4c(Nc5ccc(Sc6nccn6C)c(Cl)c5)c(C#N)cnc4c3)nc2)CC1` [Example 171, 4-{3-Chloro-4-[(1-methyl-1H-imidazol-2-yl)sulfanyl]anilino}-7-{5-[(4-ethyl-1-piperazinyl)methyl]-2-pyridinyl}-3-quinolinecarbonitrile] was 125 to 130 °C. `Cn1ccnc1Sc1ccc(Nc2c(C#N)cnc3cc(-c4ccc(CN5CCC(O)CC5)cn4)ccc23)cc1Cl` [Example 172, 4-{3-Chloro-4-[(1-methyl-1H-imidazol-2-yl)sulfanyl]anilino}-7-{5-[(4-hydroxy-1-piperidinyl)methyl]-2-pyridinyl}-3-quinolinecarbonitrile] had a melting point of 194 to 196 °C. The compound `Cn1ccnc1Sc1ccc(Nc2c(C#N)cnc3cc(-c4ccc(CN5CCC(N6CCCC6)CC5)cn4)ccc23)cc1Cl` [Example 173, 4-{3-Chloro-4-[(1-methyl-1H-imidazol-2-yl)sulfanyl]anilino}-7-(5-{[4-(1-pyrrolidinyl)-1-piperidinyl]methyl}-2-pyridinyl)-3-quinolinecarbonitrile] had a melting point of 183 to 185 °C. The same measure for `Cn1ccnc1Sc1ccc(Nc2c(C#N)cnc3cc(-c4ccc(CN5CCC(C(=O)O)CC5)cn4)ccc23)cc1Cl` [Example 175, 1-{[6-(4-{3-chloro-4-[(1-methyl-1H-imidazol-2-yl)sulfanyl]anilino}-3-cyano-7-quinolinyl)-3-pyridinyl]methyl}-4-piperidinecarboxylic acid]: 166 to 168 °C; for `COc1cc(Nc2c(C#N)cnc3cc(-c4ccc(CN5CCC(C(=O)O)CC5)cn4)ccc23)c(Cl)cc1Cl` [Example 177, 1-{6-[3-Cyano-4-(2,4-dichloro-5-methoxyphenylarino)-quinolin-7-yl]-pyridin-3-ylmethyl}-piperidine-4-carboxylic acid]: 150 °C (dec.); for `Cn1ccnc1Sc1ccc(Nc2c(C#N)cnc3cc(-c4ccc(Cl)cn4)ccc23)cc1Cl` [Example 178, 4-({3-Chloro-4-[(1-methyl-1H-imidazol-2-yl)sulfanyl]phenyl}amino)-7-(5-chloro-2-pyridinyl)-3-quinolinecarbonitrile]: 205 to 207 °C. The value for `CCN1CCN(c2ccc(-c3ccc4ncc(C#N)c(Nc5ccc(Sc6nccn6C)c(Cl)c5)c4c3)nc2)CC1` [Example 181, 4-({3-Chloro-4-[(1-methyl-1H-imidazol-2-yl)sulfanyl]phenyl}amino)-6-[5-(4-ethyl-1-piperazinyl)-2-pyridinyl]-3-quinolinecarbonitrile] was 150 °C (dec.). The value for `Cn1ccnc1Sc1ccc(Nc2c(C#N)cnc3ccc(-c4ccc(CN5CCOCC5)cn4)cc23)cc1Cl` [Example 182, 4-({3-Chloro-4-[(1-methyl-1H-imidazol-2-yl)sulfanyl]phenyl}amino)-6-[5-(4-morpholinylmethyl)-2-pyridinyl]-3-quinolinecarbonitrile] was 238 to 241 °C; that for `CN1CCN(Cc2ccc(-c3ccc4ncc(C#N)c(Nc5ccc(Sc6nccn6C)c(Cl)c5)c4c3)nc2)CC1` [Example 183, 4-({3-Chloro-4-[(1-methyl-1H-imidazol-2-yl)sulfanyl]phenyl}amino)-6-{5-[(4-methyl-1-piperazinyl)methyl]-2-pyridinyl}-3-quinolinecarbonitrile] was 260 to 262 °C; that for `Cn1ccnc1Sc1ccc(Nc2c(C#N)cnc3ccc(-c4ccc(N5CCOCC5)nc4)cc23)cc1Cl` [Example 184, 4-({3-Chloro-4-[(1-methyl-1H-imidazol-2-yl)sulfanyl]phenyl}amino)-6-[6-(4-morpholinyl)-3-pyridinyl]-3-quinolinecarbonitrile] was 276 to 278 °C.

As to `COc1cc(Nc2c(C#N)cnc3cc(-c4ccc(N5CCOCC5)nc4)ccc23)c(Cl)cc1Cl` [Example 185, 4-(2,4-Dichloro-5-methoxyanilino)-7-[6-(4-morpholinyl)-3-pyridinyl]-3-quinolinecarbonitrile], the melting point is > 260 °C. The value for `CN1CCN(Cc2ccc(-c3ccc4c(Nc5ccc(Sc6nccn6C)c(Cl)c5)c(C#N)cnc4c3)nc2)CC1` [Example 189, 4-{3-Chloro-4-[(1-methyl-1H-imidazol-2-yl)sulfanyl]anilino}-7-1-{5-[(4-methyl-1-piperazinyl)methyl]-2-pyridinyl}-3-quinolinecarbonitrile] was 197 to 199 °C; that for `Cn1ccnc1Sc1ccc(Nc2c(C#N)cnc3cc(-c4ccc(N5CCOCC5)nc4)ccc23)cc1Cl` [Example 190, 4-{3-Chloro-4-[(1-methyl-1H-imidazol-2-yl)sulfanyl]anilino}-7-[6-(4-morpholinyl)-3-pyridinyl]-3-quinolinecarbonitrile] was > 250 °C; that for `CCN1CCN(c2ccc(-c3ccc4c(Nc5ccc(Sc6nccn6C)c(Cl)c5)c(C#N)cnc4c3)cn2)CC1` [Example 195, 4-{3-Chloro-4-[(1-methyl-1H-imidazol-2-yl)sulfanyl]anilino}-7-[6-(4-ethyl-1-piperazinyl)-3-pyridinyl]-3-quinolinecarbonitrile] was 254 to 256 °C.

With `CN1CCN(c2ccc(-c3ccc4c(Nc5ccc(Sc6nccn6C)c(Cl)c5)c(C#N)cnc4c3)cn2)CC1` [Example 196, 4-{3-Chloro-4-[(1-methyl-1H-irnidazol-2-yl)sulfanyl]anilino}-7-[6-(4-methyl-1-piperazinyl)-3-pyridinyl]-3-quinolinecarbonitrile], the melting point fell in the range of 227 to 279 °C. The value for `CCN1CCN(c2ccc(-c3ccc4c(Nc5cc(OC)c(Cl)cc5Cl)c(C#N)cnc4c3)cn2)CC1` [Example 197, 4-(2,4-Dichloro-5-methoxyanilino)-7-[6-(4-ethyl-1-piperazinyl)-3-pyridinyl]-3-quinolinecarbonitrile] was 264 to 266 °C; that for `COc1cc(Nc2c(C#N)cnc3cc(-c4ccc(N5CCN(C)CC5)nc4)ccc23)c(Cl)cc1Cl` [Example 198, 4-(2,4-Dichloro-5-methoxyanilino)-7-[6-(4-methyl-1-piperazinyl)-3-pyridinyl]-3-quinolinecarbonitrile] was 240 to 242 °C; that for `Cn1ccnc1Sc1ccc(Nc2c(C#N)cnc3cc(-c4cccc(CN5CCOCC5)n4)ccc23)cc1Cl` [Example 199, 4-{3-Chloro-4-[(1-methyl-1H-imidazol-2-yl)sulfanyl]anilino}-7-[6-(4-morpholinylmethyl)-2-pyridinyl]-3-quinolinecarbonitrile] was 232 to 234 °C. The same measure for `CCN1CCN(Cc2cccc(-c3ccc4c(Nc5ccc(Sc6nccn6C)c(Cl)c5)c(C#N)cnc4c3)n2)CC1` [Example 201, 4-{3-Chloro-4-[(1-methyl-1H-imidazol-2-yl)sulfanyl]anilino}-7-{6-[(4-ethyl-1-piperazinyl)methyl]-2-pyridinyl}-3-quinolinecarbonitrile]: 214 to 216 °C.

The values above are taken from US20020026052A1, “3-cyanoquinolines, 3-cyano-1,6-naphthyridines, and 3-cyano-1,7-naphthyridines as protein kinase inhibitors” (American Home Products Corporation, priority 2000, published 2002).
